Patent publication US20220378042A1, “Herbicide combinations comprising glufosinate and oxyfluorfen” (BASF SE, priority 2020, published 2022)
Where two headings read alike, the source gives them in different places.

Tests used:
Chenopodium album = assay: greenhouse post-emergence herbicidal activity on Chenopodium album; type: in vivo; conditions: for inhibition at 327 g/ha: read-out: Solo Glufosinate % activity; for inhibition at 10.2 g/ha: 10.2 g ai/ha, scale 0-100% damage vs untreated, read-out: Solo Oxyfluorfen % activity
Source text: (§1) For the post-emergence treatment, the test plants were first grown to 3 to 4 inch (7.6 to 10.2 cm) tall, and only then treated. Here, the herbicidal compositions were suspended or emulsified in water as distribution medium and sprayed using finely distributing nozzles.
(§2) The herbicide compounds applied in the examples were used as commercially available formulations which have been diluted with deionized water to a suitable concentration.
(§3) Oxyfluorfen (commercial product name: Goal 2XL) was used as an emulsifiable concentrate having an active ingredient concentration of 240 g/l. Glufosinate (commercial product name: Liberty) was used as an aqueous soluble liquid of glufosinate ammonium having an active ingredient concentration of 280 g/l. Adjuvants of ammonium sulfate (AMS) and non-ionic surfactant (NIS) were added in all treatments. AMS and NIS were AMS Liquid and Induce at rates of 1680 g/ha and 0.25% (v/v), respectively.
(§4) The test period extended over 28 days after treatment (DAT). During this time, the plants were tended and their response to the individual treatments was evaluated.
(§5) The evaluation for the damage caused by the chemical compositions was carried out using a scale from 0 to 100%, compared to the untreated control plants. Here, 0 means no damage and 100 means complete destruction of the plants.
(§6) The plants used in the greenhouse experiments belonged to the following species:
(§7) E=X+Y−(X·Y/100) • where X=effect in percent using Oxyfluorfen at an application rate a; • Y=effect in percent using glufosinate at application rate b; • E=expected effect (in %) of Oxyfluorfen plus glufosinate at application rates a+b.
(§8) The value E corresponds to the effect (plant damage or injury) which is to be expected if the activity of the individual compounds is just additive. If the observed effect is higher than the value E calculated according to Colby, a synergistic effect is present.

Echinochloa crus-galli = assay: greenhouse post-emergence herbicidal activity on Echinochloa crus-galli; type: in vivo; conditions: for inhibition at 327 g/ha: read-out: Solo Glufosinate % activity; for inhibition at 10.2 g/ha: 10.2 g ai/ha, scale 0-100% damage vs untreated, read-out: Solo Oxyfluorfen % activity
Source text: as §1, §2, §3, §4, §5, §6, §7, §8

| SMILES | inhibition at 327 g/ha (Chenopodium album; 168 h) [%] | inhibition at 327 g/ha (Chenopodium album; 336 h) [%] | inhibition at 327 g/ha (Chenopodium album; 504 h) [%] | inhibition at 327 g/ha (Echinochloa crus-galli; 168 h) [%] | inhibition at 327 g/ha (Echinochloa crus-galli; 336 h) [%] | inhibition at 327 g/ha (Echinochloa crus-galli; 504 h) [%] | inhibition at 10.2 g/ha (Chenopodium album; 168 h, 7 DAT) [%] | inhibition at 10.2 g/ha (Chenopodium album; 336 h, 14 DAT) [%] | inhibition at 10.2 g/ha (Chenopodium album; 504 h, 21 DAT) [%] | inhibition at 10.2 g/ha (Echinochloa crus-galli; 168 h, 7 DAT) [%] | inhibition at 10.2 g/ha (Echinochloa crus-galli; 336 h, 14 DAT) [%] | inhibition at 10.2 g/ha (Echinochloa crus-galli; 504 h, 21 DAT) [%] |
| --- | --- | --- | --- | --- | --- | --- | --- | --- | --- | --- | --- | --- |
| CP(=O)(O)CCC(N)C(=O)O (racemic) [Glufosinate, (2RS)-2-amino-4-[hydroxy(methyl)phosphinoyl]butyric acid] | 81 | 75 | 78 | 84 | 25 | 20 | – | – | – | – | – | – |
| CCOc1cc(Oc2ccc(C(F)(F)F)cc2Cl)ccc1[N+](=O)[O-] [Oxyfluorfen] | – | – | – | – | – | – | 33 | 25 | 30 | 28 | 15 | 20 |
